Laboratory results taken from US10173968B2, “Bishydrazone-based antifungal agents” (University of Kentucky Research Foundation, priority 2016, dated 2019).

Legend:
[1] = tested on: all bacterial strains tested; experiment: Antibacterial MIC, summary over the panel; assay type: cell-based; conditions: read-out: antibacterial MIC values
Method: MIC values were determined against a variety of Gram-positive (strains A-D) and Gram-negative (E-J) bacterial and mycobacterial (K) strains using the double-dilution method, as previously published. Preliminary screening was performed using 500 μM of each compound.

[2] = Mammalian cell cytotoxicity, resazurin; assay type: cell-based; conditions: human
Method: Another important aspect to consider during the development of antimicrobial agents is their potential toxicity towards mammalian cells. Having established the potent antimicrobial activities of the bis(N-amidino)hydrazones and N-amidino-N′-aryl-bishydrazones against bacteria and fungi, the toxicity profile of these compounds was determined against two mammalian cell lines (A549 and BEAS-2B; FIGS. 4A-B). […]. Cytotoxicity assays were performed as previously described. The human lung carcinoma epithelial cells A549 and the normal human bronchial epithelial cells BEAS-2B were grown in F12-K and DMEM medium containing 10% fetal bovine serum (FBS) and 1% antibiotics, respectively. The confluent cells were trypsinized with 0.05%-trypsin-0.53 mM EDTA, centrifuged (1,200 rpm) and resuspended in fresh medium (F12-K or DMEM). The cells were seeded into 96-well microtiter plates at a density of 3,000 cells/well and were grown overnight. […] Triton X-100® (0.5%, v/v) gave complete loss of cell viability and was used as the positive control. The percent cell survival was calculated as: (test value/control value)×100, where control value represents cells+resazurin−drug, and test value represents cells+resazurin+drug.

C. albicans ATCC 10231 = experiment: Intracellular ROS production, DCFH-DA fluorescence assay; assay type: cell-based, Candida albicans; conditions: positive control at 1 mM, 1 h at 35° C.
From the text: We used the 2′,7′-dichlorodihydrofluorescein diacetate (DCFH-DA) dye as a probe to measure the production of ROS in yeast cells upon treatment with our compounds. DCFH-DA can easily cross the cell membranes and be hydrolyzed by cellular esterases to the non-fluorescent 2′,7′-dichlorodihydrofluorescein (DCFH), which can further be oxidized to the highly fluorescent 2′,7′-dichlorofluorescein (DCF) by the intracellular ROS. Five mL of RPMI 1640 medium were inoculated using a single colony of C. albicans ATCC 10231 (strain A) in a Falcon tube and grown overnight at 35° C. at 200 rpm. The overnight culture was diluted by adding 200 μL of yeast cells to 800 μL of the same medium. […] H2O2 at 1 mM was also used as a positive control. Cells were centrifuged and washed twice with PBS buffer (pH 7.2). Cells were resuspended in the same buffer and incubated with DCFH-DA (20 μg/mL) for 30 min in the dark. Afterwards, cells were centrifuged and washed with PBS buffer to remove excess DCFH-DA. Glass slides with 10-15 μL of each mixture were prepared and observed in bright field and fluorescence modes (FITC filter set, excitation and emission wavelengths of 488 and 512 nm, respectively) using a Zeiss Axovert 200M fluorescence microscope (FIG. 3).

Compound	MIC [1]	IC50 at 24 h ([2]; BEAS-2B)	IC50 at 24 h ([2]; A549, 24 h)	melting point	intracellular ROS production (C. albicans ATCC 10231)
Cl.N=C(N)N/N=C/c1ccc(-c2ccc(/C=N/Nc3ccc(F)cc3)cc2)cc1 [Compound 7Ac, (E)-2-((4′-((E)-(2-(4-Fluorophenyl)hydrazono)methyl)-[1,1′-biphenyl]-4-yl)methylene)hydrazine-1-carboximidamide monohydrochloride]	0.4 to 3.3 µg/mL	7.8 to 15.6 µg/mL	7.8 to 15.6 µg/mL	> 380 °C	
OO [Compound H2O2, H2O2, reference compound]					induced ROS production
